Values quoted from earlier work in patent publication US9902985B2 (priority 2012, dated 2018).
Read-outs that look alike come from different tables or passages of the source.

How the values were obtained:
[1] = system: Gram-positive organisms; conditions: fold more potent than vancomycin

## C=C(C/C=C(\C)CCC=C(C)C)CCC(C)(C)/C=C/CC/C(C)=C/CO[C@@H](COP(=O)(O)O[C@H]1O[C@H](C(N)=O)[C@@](C)(O)[C@H](OC(N)=O)[C@H]1O[C@@H]1O[C@H](CO[C@@H]2O[C@H](CO)[C@@H](O)[C@H](O)[C@H]2O)[C@@H](O[C@@H]2O[C@H](C)[C@@H](O[C@@H]3O[C@H](C(=O)NC4=C(O)CCC4=O)[C@H](O)[C@H](O)[C@H]3O)[C@H](O)[C@H]2NC(C)=O)[C@H](O)[C@H]1NC(C)=O)C(=O)O [Moenomycin A]
[1]
  potency relative to vancomycin: a thousand times more potent
[1]; listed as moenomycin
  potency relative to vancomycin: 10-1000 times
other
  absorption upon oral administration: relatively poor
